This note sets out measurements from ChEMBL document CHEMBL1125844, “Novel non-nucleoside inhibitors of HIV-1 reverse transcriptase. 1. Tricyclic pyridobenzo- and dipyridodiazepinones” (J Med Chem, 1991).

Assay [1] deals with T1, Human immunodeficiency virus type 1 reverse transcriptase (Human immunodeficiency virus 1, UniProt Q72547). Description: In vitro inhibitory activity against human immunodeficiency virus type 1 (HIV-1) reverse transcriptase (RT).
The subject of another assay is T-cell line. The assay is described as follows: In vitro cytotoxicity in CD4+ human T-cells (c8166), […]. The assay is classed as functional.
The target in assay [2] is Human immunodeficiency virus type 1 reverse transcriptase (Human immunodeficiency virus 1) (UniProt Q72547). Description: In vitro inhibitory activity of compound against human immunodeficiency virus type 1 (HIV-1) rReverse transcriptase at a concentration of 10 ug/mL.
Assay [3] concerns the target T1, Human immunodeficiency virus type 1 reverse transcriptase. The assay is described as follows: In vitro inhibitory activity of compound against human immunodeficiency virus type 1 (HIV-1) Reverse transcriptase.
The target in assay [4] is Human immunodeficiency virus type 1 reverse transcriptase (Human immunodeficiency virus 1) (UniProt Q72547). The assay is described as follows: In vitro inhibitory activity against human immunodeficiency virus type 1 (HIV-1) reverse transcriptase (RT) at a concentration of 10 ug/mL.
The target is the same in assay [5]. The assay is described as follows: In vitro inhibitory activity of compound against human immunodeficiency virus type 1 (HIV-1) Reverse transcriptase at a concentration of 10 ug/mL.

As to `Cc1cn([C@H]2C[C@H](N=[N+]=[N-])[C@@H](CO)O2)c(=O)[nH]c1=O` [ZIDOVUDINE], the IC50 (as a rule, the midpoint of a concentration-inhibition curve) in assay [1] turned out to be 6 nM. For the same compound, half-maximal cytotoxicity with T-cell line (CC50) was put at 66000 nM.
As for `CCN1C(=O)c2ccccc2N(C)c2nc(Cl)ccc21`, the inhibition – broadly, the drop in the measured response relative to a control, in per cent – in assay [2] came out at 76%. In assay [3], this compound yielded an IC50 of 3300 nM.
`CN1C(=O)c2cccnc2N(CCF)c2ncccc21`: in assay [1], inhibition was half-maximal at 2900 nM (IC50). In assay [4], this compound yielded an inhibition of 96%.
In turn, `O=C1Nc2cccnc2N(c2ccccc2)c2ncccc21` came in with a half-inhibitory concentration (IC50) in assay [1] of over 1000 nM. In assay [4], this compound gave an inhibition of 71%.
The like results for `CCN1c2cccc(C)c2N(Cc2ccccc2)C(=O)c2cccnc21` were, in that order, over 1000 nM and 40%.
On the same counts, the results for `Cc1ccnc2c1N(C)C(=O)c1cccnc1N2C1CC1` are over 1000 nM and 96%.
On the same counts, the results for `CCOC(=O)N1c2ccccc2N(C)C(=O)c2cccnc21` are over 1000 nM and 13%.
On to `CCN1c2ncccc2C(=O)N(C)c2cc(N)cnc21`, for which the concentration for half-maximal inhibition (IC50) in assay [1] was over 1000 nM. The inhibition in assay [4] worked out at 92%.
On the same counts, the results for `CCN1c2cc([N+](=O)[O-])ccc2N(C)C(=O)c2cccnc21` are 400 nM and 99%.
On the same counts, the results for `CCOC(=O)CN1c2ccccc2N(C)C(=O)c2cccnc21` are 16000 nM and 56%.
The like results for `CCN1c2ccccc2N(C)C(=O)c2cc(Cl)cnc21` were, in that order, 7600 nM and 91%.
In assay [5], `CCN1c2ncccc2C(=O)N(C)c2ccc(Cl)nc21` yielded an inhibition of 100%. Moreover, the concentration for half-maximal inhibition (IC50) in assay [3] turned out to be 150 nM.
For `CCN1C(=O)c2cccnc2Nc2ccccc21`, the IC50 in assay [1] was over 1000 nM. This compound also yielded an inhibition in assay [4] of 87%.
On the same counts, the results for `CCN1c2ncccc2C(=O)N(C)c2cccnc21` are 125 nM and 100%.
The like results for `CCN1c2ncccc2C(=O)N(C)c2cc(Cl)c(N)nc21` were, in that order, 850 nM and 98%.
On the same counts, the results for `Cc1cccc2c1NC(=O)c1cccnc1N2` are over 1000 nM and 77%.
In turn, `CCN1c2ccc(OC)cc2N(C)C(=O)c2cccnc21` had a half-inhibitory concentration (IC50) in assay [1] of 2100 nM. The compound further showed an inhibition in assay [4] of 95%.
Regarding `O=C1Nc2cccnc2Nc2ccccc21`, the IC50 in assay [1] is over 1000 nM. In assay [4], this compound yielded an inhibition of 23%.
On the same counts, the results for `C#CN1c2ccccc2N(C)C(=O)c2cccnc21` are 650 nM and 97%.
In assay [1], `CCN1c2cc(C(=O)c3ccccc3)ccc2N(C)C(=O)c2cccnc21` showed a 50% inhibitory concentration (IC50) of over 1000 nM. Moreover, the inhibition in assay [4] turned out to be 73%.
In turn, `CCCN1c2ncccc2C(=O)N(C)c2cccnc21` had a 50% inhibitory concentration (IC50) in assay [1] of 450 nM. Also, in assay [4], the inhibition was found to be 100%.
The compound `CCN1c2cccc(C)c2N(C)C(=O)c2cccnc21` displayed a concentration for half-maximal inhibition (IC50) in assay [1] of 240 nM. Also, the inhibition in assay [4] was 100%.
Turning to `CCN1c2ccc(C(N)=O)cc2N(C)C(=O)c2cccnc21`, in assay [1], inhibition was half-maximal at 27000 nM (IC50). Also, the inhibition in assay [4] was 66%.
On the same counts, the results for `CCN1c2nc(C)ccc2C(=O)N(C)c2cccnc21` are over 1000 nM and 65%.
Consider `CN1c2ccccc2NC(=O)c2cccnc21`, for which, in assay [1], the IC50 was over 1000 nM. This compound also returned an inhibition in assay [4] of 75%.
In assay [5], `CCN1c2ncccc2C(=O)N(C)c2cc(Cl)c([N+](=O)[O-])nc21` yielded an inhibition of 98%. This compound registered an IC50 in assay [3] of over 1000 nM.
In the case of `CN1C(=O)c2cccnc2N(C2CCCCC2)c2ncccc21`, the IC50 in assay [1] was over 1000 nM. The compound also displayed an inhibition in assay [4] of 73%.
On the same counts, the results for `CC(C)(C)OC(=O)CN1C(=O)c2cccnc2Nc2ccccc21` are over 1000 nM and 39%.
The like results for `CN1C(=O)c2cccnc2Nc2ccccc21` were, in that order, over 1000 nM and 43%.
`CCN1c2ncccc2C(=O)N(C)c2c(C)ccnc21` yielded a 50% inhibitory concentration (IC50) in assay [1] of 1900 nM. This compound also yielded an inhibition in assay [4] of 98%.
The like results for `CC(=O)N1c2ncccc2C(=O)N(C)c2cccnc21` were, in that order, 15300 nM and 73%.
On the same counts, the results for `CN1C(=O)c2cccnc2N(Cc2ccccc2)c2ccccc21` are 9000 nM and 93%.
The like results for `CCN1C(=O)c2cccnc2N(CC)c2cccc(C)c21` were, in that order, 8000 nM and 90%.
For `N#Cc1ccnc2c1NC(=O)c1cccnc1N2C1CC1`, the IC50 in assay [1] came out at 1250 nM. Also, in assay [4], the inhibition worked out at 96%.
The compound `CC(C)N1c2ccccc2N(C)C(=O)c2cccnc21` had an IC50 in assay [1] of 200 nM. Further, in assay [4], the inhibition was 98%.
Compound `CCCCN1c2ccccc2N(C)C(=O)c2cccnc21` came in with an IC50 in assay [1] of 1000 nM. In assay [4], this compound displayed an inhibition of 81%.
As for `CN(C)CCN1C(=O)c2cccnc2N(C2CC2)c2ncccc21`, in assay [1], the half-inhibitory concentration (IC50) is over 1000 nM. In assay [4], this compound came in with an inhibition of 34%.
The compound `CCN1c2ccc(O)cc2N(C)C(=O)c2cccnc21` gave an IC50 in assay [1] of over 1000 nM. Further, the inhibition in assay [4] came out at 47%.
On the same counts, the results for `CCN1c2ccccc2NC(=O)c2cccnc21` are 380 nM and 99%.
On the same counts, the results for `CCN1c2ccc(CO)cc2N(C)C(=O)c2cccnc21` are over 1000 nM and 78%.
The like results for `CSCN1c2ncccc2C(=O)N(C)c2cccnc21` were, in that order, 850 nM and 99%.
`CCN1c2ccc([N+](=O)[O-])cc2N(C)C(=O)c2cc(Br)cnc21` had an IC50 in assay [1] of over 1000 nM. This compound showed an inhibition in assay [4] of 64%.
On the same counts, the results for `C=CCN1C(=O)c2cccnc2N(C(=O)CC)c2ccccc21` are over 1000 nM and 72%.
On the same counts, the results for `CN1C(=O)c2cccnc2N(C)c2ccccc21` are over 1000 nM and 85%.
The like results for `CCN1c2cc(C(F)(F)F)cc(Cl)c2N(C)C(=O)c2cccnc21` were, in that order, 290 nM and 96%.
`CCN1c2ccc(C(=O)OC)cc2N(C)C(=O)c2cccnc21`: inhibition in assay [1] was half-maximal at 1100 nM (IC50). In assay [4], the inhibition is 94%.
The like results for `CCN1c2ncccc2NC(=O)c2cccnc21` were, in that order, 440 nM and 99%.
The like results for `CCN1c2cc(Cl)ccc2N(C)C(=O)c2cccnc21` were, in that order, 170 nM and 100%.
As for `CCN1c2ccc(C(=O)O)cc2N(C)C(=O)c2cccnc21`, the IC50 in assay [1] was over 1000 nM. In assay [4], this compound yielded an inhibition of 18%.
As to `Cc1ccc2c(n1)Nc1ccccc1C(=O)N2`, the IC50 in assay [1] was over 1000 nM. Further, the inhibition in assay [4] came out at 46%.
On the same counts, the results for `CCN1c2ncccc2C(=O)N(C)c2cc(C)c(C)nc21` are 240 nM and 100%.
On the same counts, the results for `CCN1c2ncc(Cl)cc2C(=O)N(C)c2cccnc21` are 3500 nM and 87%.
The like results for `CCN1c2ccc(Cl)cc2N(C)C(=O)c2cccnc21` were, in that order, 170 nM and 99%.
In assay [1], `CCN1c2ccc(C)c(C)c2N(C)C(=O)c2cccnc21` gave an IC50 of 36 nM. Besides, the inhibition in assay [4] worked out at 99%.
On the same counts, the results for `C=CCN1c2ncccc2C(=O)N(C)c2cccnc21` are 850 nM and 99%.
On the same counts, the results for `CCN1c2ncccc2C(=O)Nc2c(OC)ccnc21` are over 1000 nM and 96%.
The like results for `Cc1ccnc2c1NC(=O)c1c(O)ccnc1N2C1CC1` were, in that order, over 1000 nM and 96%.
Turning to `CCN1c2cccc(C)c2NC(=O)c2cccnc21`, in assay [1], 38 nM corresponded to half-maximal inhibition (IC50). Further, in assay [4], the inhibition was 100%.
On to `CCN(CC)C(=O)c1ccc2c(c1)N(C)C(=O)c1cccnc1N2CC`, for which the half-maximal inhibitory concentration (IC50) in assay [1] is over 1000 nM. Also, the inhibition in assay [4] turned out to be 11%.
The like results for `CCN1c2ncccc2C(=O)Nc2c(Cl)ccnc21` were, in that order, 95 nM and 100%.
For `CC[C@H](C)N1c2ncccc2NC(=O)c2cccnc21`, the IC50 in assay [1] was over 1000 nM. This compound came in with an inhibition in assay [4] of 88%.
The like results for `CCN1c2ccc(C)cc2C(=O)N(C)c2cccnc21` were, in that order, 580 nM and 99%.
The like results for `CCN1c2ccc([N+](=O)[O-])cc2N(C)C(=O)c2cccnc21` were, in that order, over 1000 nM and 56%.
On the same counts, the results for `CC(=O)N1c2cc(C)c(C)cc2N(C)C(=O)c2cccnc21` are 420 nM and 96%.
In assay [1], `CCN1c2ccccc2C(=O)N(C)c2cccnc21` showed an IC50 of 500 nM. Moreover, in assay [4], the inhibition turned out to be 99%.
The like results for `CCc1ccnc2c1NC(=O)c1cccnc1N2CC` were, in that order, 110 nM and 100%.
The like results for `CCN1c2ncccc2NC(=O)c2c(C)ccnc21` were, in that order, over 1000 nM and 80%.
On the same counts, the results for `CCN1c2ccc(CN)cc2N(C)C(=O)c2cccnc21` are over 1000 nM and 84%.
